Source: ChEMBL document CHEMBL1130726, “Novel cytokine release inhibitors. Part III: Truncated analogs of tripterine” (Bioorg Med Chem Lett, 1998)

Columns and labels:
Format in all cases: functional
Homo sapiens [1] = organism: Homo sapiens; assay: Inhibitory activity against LPS-stimulated IL-1 beta release from human monocytes
Homo sapiens [2] = organism: Homo sapiens; assay: Compound was tested for inhibitory effect on LPS-stimulated IL-8 release from human monocytes
Homo sapiens [3] = organism: Homo sapiens; assay: Compound was tested for inhibitory effect on LPS-stimulated PGE-2 release from human monocytes
Homo sapiens [4] = organism: Homo sapiens; assay: Compound was tested for inhibitory effect on LPS-stimulated IL-1 alpha release from human monocytes
Homo sapiens [5] = organism: Homo sapiens; assay: Compound was tested for inhibitory effect on LPS-stimulated TNF-alpha release from human monocytes
Homo sapiens [6] = organism: Homo sapiens; assay: Compound was tested for inhibitory effect on LPS-stimulated IL-6 release from human monocytes
Homo sapiens [7] = organism: Homo sapiens; assay: Compound was tested for inhibitory activity against LPS-stimulated IL-1 beta release from human monocytes; 80-700
Homo sapiens [8] = organism: Homo sapiens; assay: Compound was tested for inhibitory effect on LPS-stimulated IL-1 beta release from human monocytes
Homo sapiens [9] = organism: Homo sapiens; assay: Compound was tested for inhibitory activity against LPS-stimulated IL-1 beta release from human monocytes at concentration 3000 nM

## Cc1c(O)c(O)cc2c1CC=C1C(C)(C)C(=O)CCC12C (stereo not drawn)
Homo sapiens [1]
  IC50: 300 nM

## CC(=O)Oc1cc2c(c(C)c1OC(C)=O)CC=C1[C@@]3(C)CCC(=O)C(C)=C3CC[C@]12C
Homo sapiens [1]
  IC50: 80 nM

## COc1cc2c(c(C)c1OC)C=CC1=C(C)C(=O)CCC12C (stereo not drawn)
Homo sapiens [2]
  IC50: 480 nM
Homo sapiens [3]
  IC50: 450 nM
Homo sapiens [4]
  IC50: 130 nM
Homo sapiens [5]
  IC50: 190 nM
Homo sapiens [6]
  IC50: 340 nM

## COc1cc2c(c(C)c1O)CC=C1C(C)(C)C(=O)CCC12C (stereo not drawn)
Homo sapiens [1]
  IC50: 700 nM

## CC(=O)Oc1cc2c(cc1OC(C)=O)[C@]1(C)CC[C@H]3C(C)(C)C(=O)CC[C@]3(C)C1=CC2
Homo sapiens [1]
  IC50: 140 nM

## COc1cc2c(c(C)c1OC)CCC(=O)C2C (stereo not drawn)
Homo sapiens [2]
  IC50: 1000 nM
Homo sapiens [3]
  IC50: 520 nM
Homo sapiens [4]
  IC50: 240 nM
Homo sapiens [5]
  IC50: 460 nM
Homo sapiens [6]
  IC50: 430 nM

## CC1=C(O)C(=O)C=C2C1=CC=C1C(C)(C)C(=O)CCC21C (stereo not drawn)
Homo sapiens [7]
  IC50: 80 nM

## CC(=O)Oc1cc2c(c(C)c1OC(C)=O)CC=C1C(C)(C)C(=O)CC[C@]12C
Homo sapiens [1]
  IC50: 200 nM

## CC(=O)Oc1cc2c(c(C)c1OC(C)=O)CC(C(C)=O)=C1[C@@]2(C)CC[C@H]2OC(=O)C[C@]12C
Homo sapiens [1]
  IC50: 900 nM

## CC(=O)Oc1cc2c(c(C)c1OC(C)=O)CCC1=C(C)C(=O)CCC12C (stereo not drawn)
Homo sapiens [2]
  IC50: 300 nM
Homo sapiens [1]
  IC50: 2400 nM
Homo sapiens [3]
  IC50: 200 nM
Homo sapiens [4]
  IC50: 100 nM
Homo sapiens [5]
  IC50: 190 nM
Homo sapiens [6]
  IC50: 250 nM
Homo sapiens [8]
  IC50: 80 nM

## CC(=O)Oc1cc2c(c(C)c1OC(C)=O)C=CC1=C(C)C(=O)CCC12C (stereo not drawn)
Homo sapiens [2]
  IC50: 930 nM
Homo sapiens [1]
  IC50: 700 nM
Homo sapiens [3]
  IC50: 600 nM
Homo sapiens [4]
  IC50: 220 nM
Homo sapiens [5]
  IC50: 500 nM
Homo sapiens [6]
  IC50: 400 nM
Homo sapiens [8]
  IC50: 180 nM

## CC(=O)Oc1cc2c(c(C)c1OC(C)=O)CC=C1[C@@]2(C)CC[C@H]2OC(=O)C[C@]12C
Homo sapiens [1]
  IC50: 200 nM

## CCOC(=O)C[C@@]1(C)C(=O)CC[C@@]2(C)c3cc(OC(C)=O)c(OC(C)=O)cc3CC[C@H]12
Homo sapiens [1]
  IC50: 2200 nM

## CC(=O)Oc1cc2c(c(C)c1OC(C)=O)CC=C1C(C)(C)[C@H](OC(C)=O)CC[C@]12C
Homo sapiens [1]
  IC50: 100 nM

## CC(=O)Oc1cc2c(cc1OC(C)=O)[C@]1(C)CCC(=O)[C@](C)(Cc3ccc(C(=O)O)cc3)[C@H]1CC2
Homo sapiens [9]
  inhibition at 3 µM: 16%

## CC(=O)Oc1cc2c(c(C)c1OC(C)=O)CC=C1C(C)(C)C(=O)CCC12C (stereo not drawn)
Homo sapiens [1]
  IC50: 200 nM

## CC1=C(O)C(=O)C=C2C1=CC=C1[C@@]2(C)CC[C@@]2(C)[C@@H]3C[C@](C)(C(=O)O)CC[C@]3(C)CC[C@]12C [CELASTROL]
Homo sapiens [2]
  IC50: 210 nM
Homo sapiens [1]
  IC50: 40 nM
Homo sapiens [3]
  IC50: 110 nM
Homo sapiens [4]
  IC50: 40 nM
Homo sapiens [5]
  IC50: 210 nM
Homo sapiens [6]
  IC50: 80 nM
Homo sapiens [8]
  IC50: 40 nM
